Reference: patent publication EP3949965A1 (Consejo Superior de Investigaciones Cientificas, priority 2020, dated 2022)

Key:
Vero-E6 cells = details: African green monkey
in vitro [1] = details: human
in vitro [2] = details: African green monkey

O=c1[nH]c2ccccc2n1CCCN1CCC(n2c(=O)[nH]c3cc(Cl)ccc32)CC1 [Domperidone, domperidone]
HIGHEST NONTOXIC CONCENTRATION (MTT) (Vero-E6 cells): 12.5 | CC50 at 72 h (in vitro [1]): 4 µM | CC50 (in vitro [2]): 25 µM
